Patent publication US10688200B2, “Urea-based prostate specific membrane antigen (PSMA) inhibitors for imaging and therapy” (Five Eleven Pharma Inc., priority 2015, dated 2020)

Key:
[1] = tested on: PSMA-expressing LNCaP cells; test: Cell binding and internalization; format: cell-based, human; details: 37° C.
Method: The cellular uptake and internalization kinetics of the [^68Ga]1a, [^68Ga]5a and [^68Ga]5b were determined using PSMA-expressing LNCaP cells. Furthermore, to be able to discriminate between total cellular activity (sum of membrane-associated and internalized activity) and internalized activity, all incubations were followed by a washing step with mild acid at 4° C. to remove specifically cell-surface bound radioligand by displacement.
LNCaP cells (in 6-well plates in triplicates) were incubated in RPMI-1640 medium with [^68Ga]1a, [^68Ga]5a or [^68Ga]5b for 0-2 h at 37° C. At the indicated time, the medium was removed and the cells were washed twice and then incubated with a mild acid buffer (50 mM glycine, 150 mM NaCl, pH 3.0) at 4° C. for 5 min. The supernatant (containing cell surface-bound radioactivity) was pooled and the cell pellet (containing internalized radioactivity) was collected with filter paper and then radioactivity in supernatant and cell pellet was counted on a gamma counter.
LNCaP cells were incubated with [^68Ga]1a, [^68Ga]5a and [^68Ga]5b for up to 2 h at 37° C. to determine whether the compound is internalized by endocytosis. The cells were then washed with a mild acid buffer to remove extracellularly bound compound.
Non specific binding (NSB) was evaluated by blocking with 20 μM PMPA. Specificity of cell uptake (SB) was calculated by subtracting the respective signals resulting from PMPA blocking. Values are expressed as % of applied radioactivity bound to 10^6 cells.

[2] = tested on: LNCaP tumor bearing nude mice; test: Biodistribution of [68Ga]labeled ligand in PSMA positive tumor bearing nude mice; format: in vivo, mouse; details: 1 h post-injection, i.v., n = 3
Method: In a dish contained 5×10^6 cells of LNCaP in 50% Matrigel (Becton Dickinson, Heidelberg, Germany) were subcutaneously inoculated into the left shoulder of male 5- to 6-week-old CD-1 nu/nu mice (Charles River Laboratories). The tumors were allowed to grow for 8 weeks until approximately 0.5 cm^3 in size.
The ^68Ga-radiolabeled compounds were injected via tail vein (25 μCi per mouse; 0.1-0.2 nmol). At 1 h after injection, the animals were sacrificed. Organs of interest were dissected and weighed. The radioactivity was measured with a gamma counter and calculated as % ID/g.

[3] = Biodistribution of radiotracers in normal mice; format: in vivo, mouse; details: normal male mice
Summary of the method: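 Male CD-1 mice received 35 μCi [^68Ga] radiotracer (0.2 nmole ligand) by tail vein. Four mice per time point sacrificed at 2, 30, 60 and 120 min p.i.; organs and blood weighed and gamma counted. %ID/g calculated against a standard dilution of the dose, decay-corrected.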

[4] = tested on: LNCaP (left shoulder) and PC-3 (right shoulder) tumor bearing nude mouse; test: Small animal PET imaging with [68Ga]1a and [68Ga]4a; format: in vivo; details: 60 to 75 min after i.v. injection
Method: Male athymic mice (CD-1 nude, 5-6 weeks old) were obtained from Charles River, and were allowed to acclimatize at the vivarium for 1 week prior to implanting tumors. Mice were provided with food and water ad libitum. LNCaP tumors were induced on the left shoulder by sub-cutaneous (s.c.) injection of 5.0×10^6 cells in a 200 μL cell suspension of a 1:1 v/v mixture of media with reconstituted basement membrane (BD Matrigel™, Collaborative Biomedical Products Inc., Bedford, Mass.). Similarly, PC-3 tumors were induced on the right shoulder by s.c. injection of 2.0×10^6 cells. Palpable LNCaP tumors developed after a period of 4-5 weeks.
Dynamic small animal PET (APET) imaging studies of LNCaP (left shoulder) and PC-3 (right shoulder) tumor bearing nude mouse were performed with [^68Ga]1a and [^68Ga]4a. PET imaging studies were performed on a Phillips Mosaic small animal PET scanner, which has an imaging field of view of 11.5 cm. Under isoflurane anesthesia (1-2%, 1 L/min oxygen), the tumor-bearing nude mouse was injected with 0.5 mCi activity by an intravenous injection into the lateral tail vein. Data acquisition began at 30 min after the injection. Dynamic scans were conducted over a period of 1 h (5 min/frame; image voxel size 0.5 mm^3). Mouse was visually monitored for breathing, and a heating pad was used to maintain body temperature throughout the entire procedure. Images were reconstructed and a region of interest (ROI) analysis was performed using AMIDE software (http://amide.sourceforge.net/).
Representative animal PET images of LNCaP xenograft mice between 60 to 75 min after i.v. injection of [^68Ga]1a, and [^68Ga]4a are shown in FIGS. 3A-3F. […] FIGS. 3A-3F show sagittal, transaxial and coronal sections of APET images of nude mouse with LNCaP tumor at left shoulder and PC-3 tumor at right shoulder between 60 to 75 min post i.v. injection of [^68Ga]1a (FIGS. 3A-3C) and [^68Ga]4a (FIG. 3D-3F).

With `O=C(O)CCc1ccc2c(c1)C[N+]13CC[N+]45CC(=O)[O][68Ga-3]14([O]C(=O)C3)([O]2)[O]c1ccc(CCC(=O)NCCCCCC(=O)NCCCC[C@H](NC(=O)N[C@@H](CCC(=O)O)C(=O)O)C(=O)O)cc1C5` (stereo partly shown) [[^68Ga]1a, reference compound] the “Cell surface binding activity” value ([1]; 5 min) was 3.21 ± 0.74 % ID/10^6 cells, the Internalized activity ([1]; 5 min) was 0.49 ± 0.21 % ID/10^6 cells and the “Cell surface binding activity” value ([1]; 15 min) was 3.61 ± 0.47 % ID/10^6 cells. For the same compound, the Internalized activity ([1]; 15 min) was 2.51 ± 0.19 % ID/10^6 cells, the “Cell surface binding activity” value ([1]; 30 min) was 2.95 ± 0.36 % ID/10^6 cells and the Internalized activity ([1]; 30 min) was 4.30 ± 0.72 % ID/10^6 cells. For the same compound, the “Cell surface binding activity” value ([1]; 60 min) was 3.22 ± 0.81 % ID/10^6 cells, the Internalized activity ([1]; 60 min) was 7.43 ± 1.27 % ID/10^6 cells and the “Cell surface binding activity” value ([1]; 90 min) was 3.41 ± 0.17 % ID/10^6 cells. The Internalized activity ([1]; 90 min) was 8.34 ± 0.16 % ID/10^6 cells, the “Cell surface binding activity” value ([1]; 120 min) was 3.35 ± 0.04 % ID/10^6 cells and the Internalized activity ([1]; 120 min) was 8.82 ± 0.45 % ID/10^6 cells. For the same compound, the “Organ distribution: Blood” value [2] was 0.37 ± 0.07 % dose/g, the “Organ distribution: Bone” value [2] was 0.21 ± 0.05 % dose/g and the “Organ distribution: Brain” value [2] was 0.04 ± 0.01 % dose/g. For the same compound, the “Organ distribution: Heart” value [2] was 0.59 ± 0.14 % dose/g, the “Organ distribution: Kidney” value [2] was 176 ± 5.66 % dose/g and the “Organ distribution: LNCaP tumor” value [2] was 10.07 ± 3.32 % dose/g. For the same compound, the “Organ distribution: Liver” value [2] was 0.62 ± 0.24 % dose/g, the “Organ distribution: Lung” value [2] was 2.44 ± 1.03 % dose/g and the “Organ distribution: Muscle” value [2] was 0.58 ± 0.24 % dose/g. For the same compound, the “Organ distribution: Pancreas” value [2] was 1.38 ± 0.63 % dose/g, the “Organ distribution: Skin” value [2] was 1.14 ± 0.58 % dose/g and the “Organ distribution: Spleen” value [2] was 18.48 ± 3.02 % dose/g. For the same compound, the “Biodistribution: Blood” value ([3]; 2 min) was 7.75 ± 1.60 % dose/g, the “Biodistribution: Bone” value ([3]; 2 min) was 1.77 ± 0.16 % dose/g and the “Biodistribution: Brain” value ([3]; 2 min) was 0.25 ± 0.02 % dose/g. The “Biodistribution: Heart” value ([3]; 2 min) was 3.32 ± 0.51 % dose/g, the “Biodistribution: Kidney” value ([3]; 2 min) was 40.5 ± 7.81 % dose/g and the “Biodistribution: Liver” value ([3]; 2 min) was 11.0 ± 0.99 % dose/g. For the same compound, the “Biodistribution: Lung” value ([3]; 2 min) was 5.29 ± 0.82 % dose/g, the “Biodistribution: Muscle” value ([3]; 2 min) was 1.68 ± 0.20 % dose/g and the “Biodistribution: Pancreas” value ([3]; 2 min) was 1.91 ± 0.17 % dose/g. The “Biodistribution: Skin” value ([3]; 2 min) was 2.42 ± 0.38 % dose/g, the “Biodistribution: Spleen” value ([3]; 2 min) was 7.46 ± 0.84 % dose/g and the “Biodistribution: Blood” value ([3]; 30 min) was 0.54 ± 0.08 % dose/g. The “Biodistribution: Bone” value ([3]; 30 min) was 0.24 ± 0.08 % dose/g, the “Biodistribution: Brain” value ([3]; 30 min) was 0.03 ± 0.00 % dose/g and the “Biodistribution: Heart” value ([3]; 30 min) was 0.27 ± 0.09 % dose/g. For the same compound, the “Biodistribution: Kidney” value ([3]; 30 min) was 108 ± 23.7 % dose/g, the “Biodistribution: Liver” value ([3]; 30 min) was 0.35 ± 0.03 % dose/g and the “Biodistribution: Lung” value ([3]; 30 min) was 1.14 ± 0.17 % dose/g. The “Biodistribution: Muscle” value ([3]; 30 min) was 0.32 ± 0.01 % dose/g, the “Biodistribution: Pancreas” value ([3]; 30 min) was 0.76 ± 0.11 % dose/g and the “Biodistribution: Skin” value ([3]; 30 min) was 0.95 ± 0.20 % dose/g. The “Biodistribution: Spleen” value ([3]; 30 min) was 2.95 ± 0.36 % dose/g, the “Biodistribution: Blood” value ([3]; 60 min) was 0.33 ± 0.07 % dose/g and the “Biodistribution: Bone” value ([3]; 60 min) was 0.23 ± 0.02 % dose/g. The “Biodistribution: Brain” value ([3]; 60 min) was 0.02 ± 0.00 % dose/g, the “Biodistribution: Heart” value ([3]; 60 min) was 0.34 ± 0.07 % dose/g and the “Biodistribution: Kidney” value ([3]; 60 min) was 91.1 ± 11.6 % dose/g. The “Biodistribution: Liver” value ([3]; 60 min) was 6.09 ± 0.86 % dose/g, the “Biodistribution: Lung” value ([3]; 60 min) was 0.93 ± 0.14 % dose/g and the “Biodistribution: Muscle” value ([3]; 60 min) was 0.19 ± 0.02 % dose/g. For the same compound, the “Biodistribution: Pancreas” value ([3]; 60 min) was 0.59 ± 0.10 % dose/g, the “Biodistribution: Skin” value ([3]; 60 min) was 0.44 ± 0.05 % dose/g and the “Biodistribution: Spleen” value ([3]; 60 min) was 4.39 ± 0.42 % dose/g. The “Biodistribution: Blood” value ([3]; 120 min) was 0.12 ± 0.03 % dose/g, the “Biodistribution: Bone” value ([3]; 120 min) was 0.21 ± 0.05 % dose/g and the “Biodistribution: Brain” value ([3]; 120 min) was 0.01 ± 0.00 % dose/g. The “Biodistribution: Heart” value ([3]; 120 min) was 0.23 ± 0.19 % dose/g, the “Biodistribution: Kidney” value ([3]; 120 min) was 83.9 ± 13.6 % dose/g and the “Biodistribution: Liver” value ([3]; 120 min) was 2.56 ± 0.80 % dose/g. For the same compound, the “Biodistribution: Lung” value ([3]; 120 min) was 0.77 ± 0.17 % dose/g, the “Biodistribution: Muscle” value ([3]; 120 min) was 0.12 ± 0.03 % dose/g and the “Biodistribution: Pancreas” value ([3]; 120 min) was 0.64 ± 0.23 % dose/g. For the same compound, the “Biodistribution: Skin” value ([3]; 120 min) was 0.31 ± 0.12 % dose/g, the “Biodistribution: Spleen” value ([3]; 120 min) was 5.07 ± 2.68 % dose/g and the “LNCaP tumor visualization in PET images, in words” value [4] was “clearly visualized”. The “PC-3 (PSMA negative) tumor uptake in PET images, in words” value [4] was “did not show any uptakes”.
